# Measured values reported in patent US9156877B2, “17-hydroxy-17-pentafluorethyl-estra-4,9(10)-dien-11-benzylidene derivatives, methods for the production thereof and use thereof for treating diseases” (Bayer Intellectual Property GmbH, priority 2009, dated 2015).
# Key:
# [1] = Metabolic stability in rat liver microsomes; type: in vitro ADME; conditions: for Predicted clearance [l/h/kg] Rat: well-stirred model
# Description: (§1) Determination of Metabolic Stability in Human and Rat Liver Microsomes
# (§2) The incubations were conducted with 2.4 ml of HLM solution (protein content 0.5 mg/ml), 30 μl of the test compound (final concentration 1 μM) and 0.6 ml of the cofactor mixture (═NADPH-generating system composed of 3 IU glucose-6-phosphate dehydrogenase, 14.6 mg glucose-6-phosphate, 1.2 mg NADP) at 37° C. in 100 mM phosphate buffer at pH 7.4. Samples were taken at 6 time points (2-60 min) and precipitated with an equal volume of methanol, and the recovery of the test substances used in the supernatant was determined by LC-MS/MS analysis. The half-life of substance degradation determined therefrom was used to calculate what is called the intrinsic clearance of the substance in the liver microsome preparation. […] In addition, under the assumptions that (i) absorption of the test substance is 100%, and (ii) the first pass is completely reflected by liver microsome metabolism, a maximum oral bioavailability (Fmax) was calculated.
# [2] = target: T1, human progesterone receptor B (Homo sapiens, UniProt P06401); assay: Progesterone receptor-antagonistic action in stably transfected SK-N-MC cells with MMTV-LUC reporter (PR-B); type: cell-based; conditions: antagonistic potency against 0.1 nmol/l promegestone, 24 hours, luciferase
# T1 construct: expressed in transfected cells; host or cells: SK-N-MC human neuroblastoma cells, stably transfected with pRChPR-B-neo and pMMTV-LUC
# T1 sequence (P06401 1-933): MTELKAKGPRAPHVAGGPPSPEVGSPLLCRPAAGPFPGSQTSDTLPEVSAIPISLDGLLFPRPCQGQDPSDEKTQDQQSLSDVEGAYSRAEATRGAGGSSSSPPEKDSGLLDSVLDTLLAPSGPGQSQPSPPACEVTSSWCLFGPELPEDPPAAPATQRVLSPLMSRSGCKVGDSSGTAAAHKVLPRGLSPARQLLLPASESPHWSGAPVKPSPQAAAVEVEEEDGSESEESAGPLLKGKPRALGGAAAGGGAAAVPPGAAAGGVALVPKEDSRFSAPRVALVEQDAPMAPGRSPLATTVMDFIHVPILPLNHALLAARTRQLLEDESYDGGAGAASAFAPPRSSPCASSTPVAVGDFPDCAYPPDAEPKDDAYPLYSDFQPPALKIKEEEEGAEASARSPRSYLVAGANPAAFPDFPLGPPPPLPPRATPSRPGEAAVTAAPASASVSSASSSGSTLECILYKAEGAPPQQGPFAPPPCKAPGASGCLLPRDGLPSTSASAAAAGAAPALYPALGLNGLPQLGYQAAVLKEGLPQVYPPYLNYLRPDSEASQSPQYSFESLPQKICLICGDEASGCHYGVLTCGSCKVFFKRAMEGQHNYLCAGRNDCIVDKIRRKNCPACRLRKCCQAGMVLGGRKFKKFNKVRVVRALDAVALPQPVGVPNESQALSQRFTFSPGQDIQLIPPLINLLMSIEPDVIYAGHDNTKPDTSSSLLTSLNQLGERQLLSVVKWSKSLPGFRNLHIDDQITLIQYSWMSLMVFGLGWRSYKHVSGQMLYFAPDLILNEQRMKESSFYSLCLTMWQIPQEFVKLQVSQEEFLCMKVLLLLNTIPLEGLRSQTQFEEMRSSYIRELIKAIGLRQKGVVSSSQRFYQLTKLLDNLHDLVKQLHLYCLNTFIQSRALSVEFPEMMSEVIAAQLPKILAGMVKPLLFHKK
# Summary of the method: (§3)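 SK-N-MC neuroblastoma cells stably expressing human PR-A or PR-B plus MMTV-LUC reporter, treated 24 h with test compound (0.01 nmol/l–[…]). Antagonist mode used co-treatment with 0.1 nmol/l promegestone; luciferase in lysates read as RLU, expressed as % efficacy and IC50/EC50.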
# [3] = target: T2, human progesterone receptor A (Homo sapiens, UniProt P06401); assay: Progesterone receptor-antagonistic action in stably transfected SK-N-MC cells with MMTV-LUC reporter (PR-A); type: cell-based; conditions: antagonistic potency against 0.1 nmol/l promegestone, 24 hours, luciferase
# T2 construct: expressed in transfected cells; host or cells: SK-N-MC human neuroblastoma cells, stably transfected with pRChPR-A-neo and pMMTV-LUC
# T2 sequence (P06401 1-769 isoform P06401-2): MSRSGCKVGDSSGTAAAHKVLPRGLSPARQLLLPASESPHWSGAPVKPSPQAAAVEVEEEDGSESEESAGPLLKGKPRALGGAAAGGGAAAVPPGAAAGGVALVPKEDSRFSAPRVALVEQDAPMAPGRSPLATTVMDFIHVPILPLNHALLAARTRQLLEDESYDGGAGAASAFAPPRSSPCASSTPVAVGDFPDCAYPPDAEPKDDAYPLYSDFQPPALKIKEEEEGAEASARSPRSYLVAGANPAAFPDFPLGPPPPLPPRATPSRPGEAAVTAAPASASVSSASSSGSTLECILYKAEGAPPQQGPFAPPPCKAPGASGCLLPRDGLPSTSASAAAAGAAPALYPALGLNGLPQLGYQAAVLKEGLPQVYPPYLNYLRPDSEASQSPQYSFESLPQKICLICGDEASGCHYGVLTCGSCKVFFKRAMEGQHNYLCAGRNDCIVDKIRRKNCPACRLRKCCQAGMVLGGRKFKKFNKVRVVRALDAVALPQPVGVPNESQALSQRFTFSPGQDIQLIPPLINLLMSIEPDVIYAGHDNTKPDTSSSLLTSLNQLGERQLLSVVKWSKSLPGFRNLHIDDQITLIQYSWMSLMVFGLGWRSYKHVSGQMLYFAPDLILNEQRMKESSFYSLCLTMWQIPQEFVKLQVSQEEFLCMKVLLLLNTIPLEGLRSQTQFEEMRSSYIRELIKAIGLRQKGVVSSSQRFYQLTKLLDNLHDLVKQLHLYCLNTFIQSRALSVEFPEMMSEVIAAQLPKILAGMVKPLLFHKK
# Summary of the method: as §3
# [4] = Metabolic stability in human liver microsomes; type: in vitro ADME; conditions: for Predicted clearance [l/h/kg] Human: 1 μM, well-stirred model
# Description: as §1
# Isolated human liver microsomes (HLM) were used to assess the metabolic stability of compounds of general formula I.
# as §2
# [5] = Solubility in aqueous medium at pH 7.4; type: physicochemical; conditions: for solubility: aqueous medium, pH 7.4, aqueous buffer
# Source text: In addition, some compounds have an unusually good solubility, for this active ingredient class, in aqueous medium under physiological conditions (Table 2).
smiles,measurement,setting,value
"C[C@]12C[C@H](c3ccc(/C=C/c4cccc(C(=O)O)c4)cc3)C3=C4CCC(=O)C=C4CC[C@H]3[C@@H]1CC[C@@]2(O)C(F)(F)C(F)(F)F [Example 28, 3-{(E)-2-[4-((8S,11R,13S,14S,17S)-17-hydroxy-13-methyl-3-oxo-17-pentafluoroethyl-2,3,6,7,8,11,12,13,14,15,16,17-dodecahydro-1H-cyclopenta[a]phenanthren-11-yl)phenyl]vinyl}benzoic acid]",Predicted Fmax [%] (maximum oral bioavailability) Rat,[1],97%
same,Predicted clearance [l/h/kg] Rat,[1],0.1 L/h/kg
same,IC50,[2],0.1 nM
same,IC50,[3],0.06 nM
same,Predicted Fmax [%] (maximum oral bioavailability) Human,[4],74%
same,Predicted clearance [l/h/kg] Human,[4],0.35 L/h/kg
same,solubility (in words),[5]; aqueous medium under physiological conditions,improved
same,solubility,[5],120 µg/mL
"C=CC=Cc1ccc([C@H]2C[C@@]3(C)C(CC[C@@]3(O)C(F)(F)C(F)(F)F)C3CCC4=CC(=O)CCC4=C32)cc1 (mixture of isomers) [Example 18, (8S,11R,13S,14S,17S)-11-[((E/Z)-4-buta-1,3-dienyl)phenyl]-17-hydroxy-13-methyl-17-pentafluoroethyl-1,2,6,7,8,11,12,13,14,15,16,17-dodecahydrocyclopenta[a]phenanthren-3-one]",Predicted Fmax [%] (maximum oral bioavailability) Rat,[1],57%
same,Predicted clearance [l/h/kg] Rat,[1],1.8 L/h/kg
same,IC50,[2],0.02 nM
same,IC50,[3],0.01 nM
same,Predicted Fmax [%] (maximum oral bioavailability) Human,[4],36%
same,Predicted clearance [l/h/kg] Human,[4],0.84 L/h/kg
same,solubility,[5],6 µg/mL
"CC(=O)/C=C/c1ccc([C@H]2C[C@@]3(C)[C@@H](CC[C@@]3(O)C(F)(F)C(F)(F)F)[C@@H]3CCC4=CC(=O)CCC4=C32)cc1 [Example 16, (8S,11R,13S,14S,17S)-17-hydroxy-13-methyl-11-[4-((E)-3-oxobut-1-enyl)phenyl]-17-pentafluoroethyl-1,2,6,7,8,11,12,13,14,15,16,17-dodecahydrocyclopenta[a]phenanthren-3-one]",Predicted Fmax [%] (maximum oral bioavailability) Rat,[1],52%
same,Predicted clearance [l/h/kg] Rat,[1],2.0 L/h/kg
same,IC50,[2],0.3 nM
same,IC50,[3],0.1 nM
same,Predicted Fmax [%] (maximum oral bioavailability) Human,[4],23%
same,Predicted clearance [l/h/kg] Human,[4],1.02 L/h/kg
same,solubility,[5],10 µg/mL
"C[C@]12C[C@H](c3cccc(/C=C/c4ccncc4)c3)C3=C4CCC(=O)C=C4CC[C@H]3[C@@H]1CC[C@@]2(O)C(F)(F)C(F)(F)F [Example 23, (8S,11R,13S,14S,17S)-17-hydroxy-13-methyl-17-pentafluoroethyl-11-[3-((E)-2-pyridin-4-ylvinyl)phenyl]-1,2,6,7,8,11,12,13,14,15,16,17-dodecahydrocyclopenta[a]phenanthren-3-one]",Predicted Fmax [%] (maximum oral bioavailability) Rat,[1],95%
same,Predicted clearance [l/h/kg] Rat,[1],0.2 L/h/kg
same,IC50,[2],0.2 nM
same,IC50,[3],0.2 nM
same,Predicted Fmax [%] (maximum oral bioavailability) Human,[4],67%
same,Predicted clearance [l/h/kg] Human,[4],0.4 L/h/kg
same,solubility,[5],8 µg/mL
"C[C@]12C[C@H](c3ccc(/C=C/CC(C#N)C#N)cc3)C3=C4CCC(=O)C=C4CCC3C1CC[C@@]2(O)C(F)(F)C(F)(F)F (stereo partly drawn) [Example 27, 2-{(E)-3-[4-((8S,11R,13S,14S,17S)-17-hydroxy-13-methyl-3-oxo-17-pentafluoroethyl-2,3,6,7,8,11,12,13,14,15,16,17-dodecahydro-1H-cyclopenta[a]phenanthren-11-yl)phenyl]allyl}malonitrile]",Predicted Fmax [%] (maximum oral bioavailability) Rat,[1],79%
same,Predicted clearance [l/h/kg] Rat,[1],0.9 L/h/kg
same,IC50,[2],0.1 nM
same,IC50,[3],0.2 nM
same,Predicted Fmax [%] (maximum oral bioavailability) Human,[4],26%
same,Predicted clearance [l/h/kg] Human,[4],0.98 L/h/kg
same,solubility,[5],10 µg/mL
"Cc1nc(/C=C/c2ccc([C@H]3C[C@@]4(C)[C@@H](CC[C@@]4(O)C(F)(F)C(F)(F)F)[C@@H]4CCC5=CC(=O)CCC5=C43)cc2)cs1 [Example 9, (8S,11R,13S,14S,17S)-17-hydroxy-13-methyl-11-{4-[(E)-2-(2-methylthiazol-4-yl)vinyl]phenyl}-17-pentafluoroethyl-1,2,6,7,8,11,12,13,14,15,16,17-dodecahydrocyclopenta[a]phenanthren-3-one]",Predicted Fmax [%] (maximum oral bioavailability) Rat,[1],76%
same,Predicted clearance [l/h/kg] Rat,[1],1.0 L/h/kg
same,IC50,[2],0.09 nM
same,IC50,[3],0.055 nM
same,Predicted Fmax [%] (maximum oral bioavailability) Human,[4],68%
same,Predicted clearance [l/h/kg] Human,[4],0.43 L/h/kg
same,solubility,[5],8 µg/mL
"CCO/N=C/c1ccc([C@H]2C[C@@]3(C)[C@@H](CC[C@@]3(O)C(F)(F)C(F)(F)F)[C@@H]3CCC4=CC(=O)CCC4=C32)cc1 [Example 36, 4-((8S,11R,13S,14S,17S)-17-hydroxy-13-methyl-3-oxo-17-pentafluoroethyl-2,3,6,7,8,11,12,13,14,15,16,17-dodecahydro-1H-cyclopenta[a]phenanthren-11-yl)benzaldehyde O-ethyl oxime]",Predicted Fmax [%] (maximum oral bioavailability) Rat,[1],82%
same,Predicted clearance [l/h/kg] Rat,[1],0.8 L/h/kg
same,IC50,[2],0.08 nM
same,IC50,[3],0.08 nM
same,Predicted Fmax [%] (maximum oral bioavailability) Human,[4],72%
same,Predicted clearance [l/h/kg] Human,[4],0.36 L/h/kg
same,solubility,[5],5 µg/mL
"C[C@]12C[C@H](c3ccc(/C=C/CO)cc3)C3=C4CCC(=O)C=C4CC[C@H]3[C@@H]1CC[C@@]2(O)C(F)(F)C(F)(F)F [Example 2, (8S,11R,13S,14S,17S)-17-hydroxy-11-[4-((E)-3-hydroxypropenyl)phenyl]-13-methyl-17-pentafluoroethyl-1,2,6,7,8,11,12,13,14,15,16,17-dodecahydrocyclopenta[a]phenanthren-3-one]",Predicted Fmax [%] (maximum oral bioavailability) Rat,[1],69%
same,Predicted clearance [l/h/kg] Rat,[1],1.3 L/h/kg
same,IC50,[2],0.25 nM
same,IC50,[3],0.14 nM
same,Predicted Fmax [%] (maximum oral bioavailability) Human,[4],69%
same,Predicted clearance [l/h/kg] Human,[4],0.41 L/h/kg
same,solubility,[5],11 µg/mL
